According to US9156853B2, “AKT inhibitor compounds for treatment of cancer” (ALMAC DISCOVERY LIMITED, priority 2012, dated 2015):
Counter-ions that a name gives are not always drawn.

Experiments:
[1] = target: T1, AKT3 (Homo sapiens, UniProt Q9Y243); experiment: AKT Kinase Assay (IMAP fluorescent polarisation), AKT3 isoform; type: biochemical; details: for IC50: activated AKT3, FAM Crosstide substrate; for potency against AKT3 compared with the comparator compound: compared with the non-hydroxylated Compound A, F or L
T1 construct: purchased SignalChem
Procedure: (§1) Testing of the compounds was performed using an AKT Kinase Assay:
(§2) Activated AKT isoforms 1, 2 and 3 were assayed utilising a 5′ FAM Crosstide (Seq. GRPRTSSFAEG-OH). The extent of kinase phosphorylation was determined by fluorescent polarisation using IMAP progressive binding reagent, which introduces binding beads which allow the reagent to specifically bind to phosphate residues via covalent co-ordination complex bonds.
(§3) iMAP binding solution stops Crosstide/kinase interaction and specifically binds phosphorylated substrates. The degree of phosphorylation is determined by fluorescent polarisation (excitation 485 nm; emission 528 nm) or the reduction in speed of rotation of the excited substrate.
(§4) The following materials were used in the assay: • a) Activated AKT isoforms (SignalChem.) dissolved in Complete Reaction buffer at a predetermined concentration selected so that the assay was carried out in the linear range. • b) AKT substrate peptide: FAM Crosstide (R7110) Molecular Devices, diluted in complete reaction buffer. • c) iMAP Progressive Screening Express Kit (R8127) Molecular Devices • d) Complete Reaction Buffer containing 0.1% BSA, 10 mM Tris-HCl, 10 mM MgCl2, 0.05% NaN3 and 0.01% phosphate free BSA, 1 mM DTT • e) Progressive Binding Solution containing 75% Buffer A, 25% Buffer B and low volume Binding Reagent which contains the binding entity for the assay • f) ATP diluted in complete reaction buffer • g) Black polystyrene 384 well assay plates (Nunc). • h) Biotek Synergy 4 Hybrid Plate reader.
(§5) 5 μl of test compound was dissolved in DMSO (Sigma Aldrich) and serially diluted in complete reaction buffer to give a fourteen point half log dose response and plated into 384 well black plates. The compound was incubated at room temperature with activated AKT isoform (5 μl) at the predetermined concentration, for 45 min.
(§6) 2.5 μl of ATP solution mixed with 2.5 μl of AKT substrate peptide (FAM Crosstide (R7110) Molecular Devices) were dispensed into each well and the plate centrifuged at 1000 rpm for 20 seconds to ensure homogenous mixing of reagents. The reaction mix was incubated in the dark for 1 h at room temperature.
(§7) The kinase reaction was stopped by the addition of Progressive Binding Solution and the mixture allowed to equilibrate for 1 h in the dark, at room temperature.
(§8) The fluorescent polarisation generated in each well was determined using a […] Synergy 4 Hybrid plate reader. In brief, each reaction solution was excited at 485 nm with the emission measured at 528 nm in both the parallel and perpendicular pathway.
(§9) The polarisation value generated in each well was calculated by Gen5 software (Biotek) and the % inhibition of kinase activity compared to vehicle control was calculated via GraphPad Prism. IC50 values for each compound were calculated by non-linear regression analysis using Prism software.
(§10) All plates were internally controlled by two methods. Firstly, by calculating the signal:noise ratio; based on kinase polarisation without inhibitor and polarisation generated by complete reaction buffer in the absence of activated kinase. Secondly by determining IC50 values generated by known inhibitors of the AKT isoforms.
(§11) The data was analysed using GraphPad Prism, with IC50 values generated using non-linear regression of the data set.

[2] = Plasma protein binding (fraction unbound, human plasma); type: in vitro ADME
Procedure: (§12) SelectScreen® data was determined at Invitrogen. Plasma protein binding and pharmacokinetic analyses were determined using standard protocols.

[3] = Pharmacokinetic analysis, half-life in rat; type: in vivo; details: for half-life: rat, in vivo, read-out: T½ (rat) h
Procedure: as §12

[4] = target: T2, AKT1 (Homo sapiens, UniProt P31749); experiment: AKT Kinase Assay (IMAP fluorescent polarisation), AKT1 isoform; type: biochemical; details: for IC50: activated AKT1, FAM Crosstide substrate; for potency against AKT1 compared with the comparator compound: compared with the non-hydroxylated Compound A, F or L
T2 construct: purchased SignalChem
Procedure: as §1, §2, §3, §4, §5, §6, §7, §8, §9, §10, §11

[5] = test system: kinases other than AKT1; experiment: SelectScreen kinase panel (Invitrogen); type: biochemical; details: for >=80% in Selectscreen (at 10 uM) other than AKT1: number of kinases other than AKT1 with >=80% at 10 uM
Procedure: as §12

[6] = target: T3, AKT2 (Homo sapiens, UniProt P31751); experiment: AKT Kinase Assay (IMAP fluorescent polarisation), AKT2 isoform; type: biochemical; details: for IC50: activated AKT2, FAM Crosstide substrate; for potency against AKT2 compared with the comparator compound: compared with the non-hydroxylated Compound A, F or L
T3 construct: purchased SignalChem
Procedure: as §1, §2, §3, §4, §5, §6, §7, §8, §9, §10, §11

[7] = test system: pAKT (Ser473) in PC3 cells; experiment: Inhibition of pAKT in PC3 cells; type: cell-based; details: Homo sapiens, PC-3, 24 h incubation, read-out: inhibition of pAKT in PC3 cell lines, IC50
Procedure: Analysis of Compound Effects on AKT Signalling Pathways: Inhibition of pAKT in PC3 Cells
PC3 cells were seeded overnight in 96 well plates followed by serum starvation for 4 h. Increasing concentrations of AKT inhibitor, in complete medium (RPMI 1640), were added to the cells and incubated for a further 24 h.
The cells were fixed in paraformaldehyde, permeabilised and blocked in BSA, followed by incubation with pAKT (Ser473) and total AKT antibody overnight (R&D Systems). Secondary antibody mixture was added, followed by a combination of fluorescent substrates added for a final incubation.
Fluorescent intensities for each antibody were read at 540/600 nm and 360/450 nm respectively on a Synergy 4 plate reader. The percentage change in fluorescent intensity was plotted against log concentration of inhibitor; to generate IC50 values (GraphPad Prism).

T1 sequence (Q9Y243 whole entry, canonical isoform): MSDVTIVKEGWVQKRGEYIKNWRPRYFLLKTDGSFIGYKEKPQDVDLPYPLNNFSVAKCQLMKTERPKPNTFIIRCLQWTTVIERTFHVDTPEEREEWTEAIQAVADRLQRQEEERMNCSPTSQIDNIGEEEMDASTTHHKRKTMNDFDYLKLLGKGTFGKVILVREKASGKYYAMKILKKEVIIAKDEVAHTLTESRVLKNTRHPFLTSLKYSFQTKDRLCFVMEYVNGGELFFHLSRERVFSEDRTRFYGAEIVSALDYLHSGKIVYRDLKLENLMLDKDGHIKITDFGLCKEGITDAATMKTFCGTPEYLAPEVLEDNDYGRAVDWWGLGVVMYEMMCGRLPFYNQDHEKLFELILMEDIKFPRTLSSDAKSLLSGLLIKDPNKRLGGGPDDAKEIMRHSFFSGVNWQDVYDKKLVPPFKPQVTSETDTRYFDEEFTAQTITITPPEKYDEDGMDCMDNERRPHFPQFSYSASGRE
T3 sequence (P31751 whole entry, canonical isoform): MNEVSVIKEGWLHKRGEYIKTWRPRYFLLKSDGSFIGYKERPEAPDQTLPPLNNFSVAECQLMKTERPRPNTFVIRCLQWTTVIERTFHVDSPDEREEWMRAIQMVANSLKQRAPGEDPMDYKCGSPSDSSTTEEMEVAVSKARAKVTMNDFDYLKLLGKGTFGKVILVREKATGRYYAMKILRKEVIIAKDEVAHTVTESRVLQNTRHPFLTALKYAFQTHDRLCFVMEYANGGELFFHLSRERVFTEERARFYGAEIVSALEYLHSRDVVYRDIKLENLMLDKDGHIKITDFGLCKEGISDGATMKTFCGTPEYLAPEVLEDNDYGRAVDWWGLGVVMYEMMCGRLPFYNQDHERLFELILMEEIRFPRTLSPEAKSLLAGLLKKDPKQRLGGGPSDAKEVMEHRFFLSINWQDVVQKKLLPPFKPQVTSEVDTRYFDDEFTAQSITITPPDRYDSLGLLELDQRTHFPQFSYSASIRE
T2 sequence (P31749 whole entry, canonical isoform): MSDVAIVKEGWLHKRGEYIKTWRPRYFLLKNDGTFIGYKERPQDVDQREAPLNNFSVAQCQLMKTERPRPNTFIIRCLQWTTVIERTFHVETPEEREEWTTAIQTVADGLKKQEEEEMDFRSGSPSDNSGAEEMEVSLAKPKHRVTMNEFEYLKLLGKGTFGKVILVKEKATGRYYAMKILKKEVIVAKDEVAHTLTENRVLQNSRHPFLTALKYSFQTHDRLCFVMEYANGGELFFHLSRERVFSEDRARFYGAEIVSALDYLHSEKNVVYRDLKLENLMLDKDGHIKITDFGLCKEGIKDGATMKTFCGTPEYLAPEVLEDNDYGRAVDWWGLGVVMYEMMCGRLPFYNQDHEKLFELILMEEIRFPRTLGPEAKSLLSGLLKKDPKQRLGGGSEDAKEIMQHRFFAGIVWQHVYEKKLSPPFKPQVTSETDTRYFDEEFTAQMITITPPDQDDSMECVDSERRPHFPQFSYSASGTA

| SMILES | IC50 [1] [nM] | potency against AKT3 compared with the comparator compound [1] | fraction unbound [2] | unbound fraction (human plasma) compared with Compound A [2] | half-life [3] [h] | T1/2 in rodent compared with Compound A [3] | IC50 [4] [nM] | potency against AKT1 compared with the comparator compound [4] | >=80% in Selectscreen (at 10 uM) other than AKT1 [5] | IC50 [6] [nM] | potency against AKT2 compared with the comparator compound [6] | IC50 [7] [nM] | off-target kinase activity in the SelectScreen panel compared with Compound A ([5]; compared with compound A) |
| --- | --- | --- | --- | --- | --- | --- | --- | --- | --- | --- | --- | --- | --- |
| C[C@]1(O)C[C@@](N)(c2ccc(-c3sc4ncn(CC(F)(F)F)c(=O)c4c3-c3ccccc3)cc2)C1 [Compound 5, 6-(4-((1r,3r)-1-Amino-3-hydroxy-3-methylcyclobutyl)phenyl)-5-phenyl-3-(2,2,2-trifluoroethyl)thieno[2,3-d]pyrimidin-4(3H)-one.TFA] | 1000 to 6000 | improved potency | 0.02 to 0.05 | significantly higher unbound fraction | ≤ 10 | shorter T1/2 | ≤ 300 | improved potency | ** (1-2 kinases) | 20 to 100 | improved potency | ≤ 500 |  |
| C[C@]1(O)C[C@@](N)(c2ccc(-c3oc4ncn(CC(F)(F)F)c(=O)c4c3-c3ccccc3)cc2)C1 [Compound 4, 6-(4-((1r,3r)-1-Amino-3-hydroxy-3-methylcyclobutyl)phenyl)-5-phenyl-3-(2,2,2-trifluoroethyl)furo[2,3-d]pyrimidin-4(3H)-one.HCl] | ≤ 1000 | improved potency |  |  |  |  | ≤ 300 | improved potency | ** (1-2 kinases) | ≤ 20 | improved potency | ≤ 500 | less off-target kinase activity |
| N[C@]1(c2ccc(-c3oc4ncn(CC(F)(F)F)c(=O)c4c3-c3ccccc3)cc2)C[C@H](O)C1 [Compound 3, 6-(4-((1s,3s)-1-Amino-3-hydroxycyclobutyl)phenyl)-5-phenyl-3-(2,2,2-trifluoroethyl)furo[2,3-d]pyrimidin-4(3H)-one.HCl] | 1000 to 6000 | improved potency |  |  |  |  | 300 to 1500 | improved potency |  | ≤ 20 | improved potency | ≤ 500 |  |
| N[C@]1(c2ccc(-c3oc4ncn(CC(F)(F)F)c(=O)c4c3-c3ccccc3)cc2)C[C@@H](O)C1 [Compound 2, 6-(4-((1r,3r)-1-Amino-3-hydroxycyclobutyl)phenyl)-5-phenyl-3-(2,2,2-trifluoroethyl)furo[2,3-d]pyrimidin-4(3H)-one. HCl] | > 6000 |  |  |  |  |  | > 1500 |  |  | ≤ 20 | improved potency | ≤ 500 |  |
| C[C@]1(O)C[C@](N)(c2ccc(-c3oc4ncn(CC(F)(F)F)c(=O)c4c3-c3ccccc3)cc2)C1 [Compound 1, 6-(4-((1s,3s)-1-Amino-3-hydroxy-3-methylcyclobutyl)phenyl)-5-phenyl-3-(2,2,2-trifluoroethyl)furo[2,3-d]pyrimidin-4(3H)-one.HCl] | 1000 to 6000 | improved potency | ≥ 0.05 | significantly higher unbound fraction | ≤ 10 | shorter T1/2 | 300 to 1500 | improved potency | * (>2 kinases) | ≤ 20 | improved potency | ≤ 500 |  |

The remaining lines, values ahead:

| IC50 [1] [nM] | potency against AKT3 compared with the comparator compound [1] | fraction unbound [2] | unbound fraction (human plasma) compared with Compound A [2] | half-life [3] [h] | T1/2 in rodent compared with Compound A [3] | IC50 [4] [nM] | potency against AKT1 compared with the comparator compound [4] | >=80% in Selectscreen (at 10 uM) other than AKT1 [5] | IC50 [6] [nM] | potency against AKT2 compared with the comparator compound [6] | IC50 [7] [nM] | off-target kinase activity in the SelectScreen panel compared with Compound A ([5]; compared with compound A) | SMILES |
| --- | --- | --- | --- | --- | --- | --- | --- | --- | --- | --- | --- | --- | --- |
| > 6000 |  | ≤ 0.02 |  | > 24 |  | > 1500 |  | * (>2 kinases) | 20 to 100 |  |  |  | NC1(c2ccc(-c3oc4ncn(CC(F)(F)F)c(=O)c4c3-c3ccccc3)cc2)CCC1 [Compound A, reference compound] |
| 1000 to 6000 | improved potency | 0.02 to 0.05 | significantly higher unbound fraction | ≤ 10 | shorter T1/2 | ≤ 300 | improved potency | *** (0 kinases) | ≤ 20 | improved potency | ≤ 500 |  | Cn1c(-c2ccc([C@]3(N)C[C@](C)(O)C3)cc2)c(-c2ccccc2)c2c(=O)n(CC(F)(F)F)cnc21 [Compound 6, 6-(4-((1r,3r)-1-Amino-3-hydroxy-3-methylcyclobutyl)phenyl)-7-methyl-5-phenyl-3-(2,2,2-trifluoroethyl)-3H-pyrrolo[2,3-d]pyrimidin-4(7H)-one.HCl] |
